Data: patent US9498483B2, “2,3,5-trisubstituted thiophene compounds and uses thereof” (priority 2010, dated 2016)

The compounds below were run against T1, HCV polymerase (Hepatitis C virus genotype 1b, UniProt Q9WMX2) (assay: Polymerase assay of Biological Example 1 (IC50 values of Table 3)). Conditions: IC50 values of Table 3, polymerase assay of Biological Example 1; read-out: NS5B-enzyme3.
T1 construct: (His)6 (C); made in house; host or cells: XL-1 cells (E. coli, by own knowledge)
Type: biochemical
Source text: A number of assays have been published to assess these activities. A general method that assesses the gross increase of HCV virus in culture was disclosed in U.S. Pat. No. 5,738,985 to Miles et al. In vitro assays have been reported in Ferrari et al. Jnl. of Vir., 73:1649-1654, 1999; Ishii et al., Hepatology, 29:1227-1235, 1999; Lohmann et al., Jnl of Bio. Chem., 274:10807-10815, 1999; and Yamashita et al., Jnl. of Bio. Chem., 273:15479-15486, 1998.
WO 97/12033, filed on Sep. 27, 1996, by Emory University, listing C. Hagedorn and A. Reinoldus as inventors, which claims priority to U.S. Provisional Patent Application Ser. No. 60/004,383, filed on September 1995, described an HCV polymerase assay that can be used to evaluate the activity of the of the compounds described herein. Another HCV polymerase assay has been reported by Bartholomeusz, et al., Hepatitis C Virus (HCV) RNA polymerase assay using cloned HCV non-structural proteins; Antiviral Therapy 1996:1 (Supp 4) 18-24.

Q: With `Cc1cccc(C)c1CN1CC(=O)N(c2cc(-c3ccccc3)sc2C(=O)O)[C@H](C2CCCCC2)C1` [Compound 264, 3-[(R)-2-Cyclohexyl-4-(2,6-dimethyl-benzyl)-6-oxo-piperazin-1-yl]-5-phenyl-thiophene-2-carboxylic acid] as the compound, how does the IC50 read?
A: 0.538 µM

Q: Which IC50 does the source give for `O=C(COc1ccccc1)N[C@@H]1CC(=O)N(c2cc(-c3ccccc3)sc2C(=O)O)[C@@H](C2CCCCC2)C1` [Compound 22, 3-[(2R,4S)-2-Cyclohexyl-6-oxo-4-(2-phenoxy-acetylamino)-piperidin-1-yl]-5-phenyl-thiophene-2-carboxylic acid] here?
A: 0.02 µM

Q: With `Cc1oc(C)c(S(=O)(=O)N2CC(=O)N(c3cc(-c4ccccc4)sc3C(=O)O)C(C3CCCCC3)C2)c1C(=O)O` (centres unmarked) [Compound 33, 4-[4-(2-Carboxy-5-phenyl-thiophen-3-yl)-3-cyclohexyl-5-oxo-piperazine-1-sulfonyl]-2,5-dimethyl-furan-3-carboxylic acid] as the compound, how does the IC50 read?
A: 0.038 µM

Q: `CC(C)S(=O)(=O)N1CC(=O)N(c2cc(-c3ccccc3)sc2C(=O)O)C(C2CCCCC2)C1` (centres unmarked) [Compound 37, 3-[2-Cyclohexyl-6-oxo-4-(propane-2-sulfonyl)-piperazin-1-yl]-5-phenyl-thiophene-2-carboxylic acid] was tested. Which IC50 did it give?
A: 0.072 µM

Q: How did the IC50 turn out when `Cc1cccc(CN2CC(=O)N(c3cc(-c4ccccc4)sc3C(=O)O)[C@H](C3CCCCC3)C2)c1` [Compound 263, 3-[(R)-2-Cyclohexyl-4-(3-methyl-benzyl)-6-oxo-piperazin-1-yl]-5-phenyl-thiophene-2-carboxylic acid] was run?
A: 0.108 µM

Q: With “3-[(2S,5R)-5-Cyclohexyl-2-(2,3-dihydroxy-propyl)-2-methyl-3-oxo-morpholin-4-yl]-5-(3,3-dimethyl-but-1-ynyl)-thiophene-2-carboxylic acid [Compound 326]” as the compound, how does the IC50 read?
A: 0.882 µM

Q: Which IC50 does the source give for `O=C(O)c1sc(-c2ccccc2)cc1N1C(=O)CN(CC2CCCCC2)C[C@H]1C1CCCCC1` [Compound 265, 3-((R)-2-Cyclohexyl-4-cyclohexylmethyl-6-oxo-piperazin-1-yl)-5-phenyl-thiophene-2-carboxylic acid] here?
A: 0.601 µM

Q: How did the IC50 turn out when `O=C(O)c1sc(-c2ccccc2)cc1N1C(=O)CN(Cc2cccc(F)c2N2CCOCC2)C[C@H]1C1CCCCC1` [Compound 266, 3-[(R)-2-Cyclohexyl-4-(3-fluoro-2-morpholin-4-yl-benzyl)-6-oxo-piperazin-1-yl]-5-phenyl-thiophene-2-carboxylic acid] was run?
A: 0.142 µM

Q: For `CN(C)c1ccc(CN2CC(=O)N(c3cc(-c4ccccc4)sc3C(=O)O)[C@H](C3CCCCC3)C2)cc1` [Compound 270, 3-[(R)-2-Cyclohexyl-4-(4-dimethylamino-benzyl)-6-oxo-piperazin-1-yl]-5-phenyl-thiophene-2-carboxylic acid], which IC50 is on record?
A: 0.019 µM

Q: With `CC(C)(C)C#Cc1cc(N2C(=O)C(CCCS(C)(=O)=O)OC[C@H]2C2CCCCC2)c(C(=O)O)s1` (stereo partly drawn) [Compound 306, 3-[(R)-5-Cyclohexyl-2-(3-methanesulfonyl-propyl)-3-oxo-morpholin-4-yl]-5-(3,3-dimethyl-but-1-ynyl)-thiophene-2-carboxylic acid] as the compound, how does the IC50 read?
A: 0.0053 µM

Q: How did the IC50 turn out when `O=C(O)c1sc(-c2ccccc2)cc1N1C(=O)CN(Cc2cccc(-n3cccc3)c2)C[C@H]1C1CCCCC1` [Compound 261, 3-[(R)-2-Cyclohexyl-6-oxo-4-(3-pyrrol-1-yl-benzyl)-piperazin-1-yl]-5-phenyl-thiophene-2-carboxylic acid] was run?
A: 0.199 µM

Q: `O=C(O)c1sc(-c2ccccc2)cc1N1C(=O)CN(CCc2ccccc2)C[C@H]1C1CCCCC1` [Compound 268, 3-((R)-2-Cyclohexyl-6-oxo-4-phenethyl-piperazin-1-yl)-5-phenyl-thiophene-2-carboxylic acid] was tested. Which IC50 did it give?
A: 0.62 µM

Q: Which IC50 does the source give for `Cc1ccccc1CN1CC(=O)N(c2cc(-c3ccccc3)sc2C(=O)O)[C@H](C2CCCCC2)C1` [Compound 269, 3-[(R)-2-Cyclohexyl-4-(2-methyl-benzyl)-6-oxo-piperazin-1-yl]-5-phenyl-thiophene-2-carboxylic acid] here?
A: 0.33 µM

Q: With `CC(C)(C)OC(=O)N1CC(=O)N(c2cc(-c3ccccc3)sc2C(=O)O)[C@H](C2CCCCC2)C1` [Compound 14, (R)-4-(2-Carboxy-5-phenyl-thiophen-3-yl)-3-cyclohexyl-5-oxo-piperazine-1-carboxylic acid tert-butyl ester] as the compound, how does the IC50 read?
A: 3.65 µM

Each compound was assayed on HCV replicon I389luc-ubi-neo/NS3-3′/ET in ET (Huh-lucubineo-ET) cells (assay: Replicon assay (Biological Example 2), luciferase readout). Conditions: Hepatitis C virus; ET cells, luciferase activity 48 hours after compound.
Type: cell-based
Procedure: A cell line, ET (Huh-lucubineo-ET) was used for screening of compounds for inhibiting HCV RNA dependent RNA polymerase. The ET cell line was stably transfected with RNA transcripts harboring a I389luc-ubi-neo/NS3-3′/ET; replicon with firefly luciferase-ubiquitin-neomycin phosphotransferase fusion protein and EMCV-IRES driven NS3-5B polyprotein containing the cell culture adaptive mutations (E1202G; T12801; K1846T) (Krieger at al, 2001 and unpublished). The ET cells were grown in DMEM (Dulbeco's Modified Eagle's Medium), supplemented with 10% fetal calf serum, 2 mM Glutamine, Penicillin (100 IU/mL)/Streptomycin (100 μg/mL), 1× nonessential amino acids, and 250 μg/mL G418 (“Geneticin”). Reagents were all available through Life Technologies (Bethesda, Md.). The cells were plated at 0.5-1.0×10^4 cells/well in the 96 well plates and incubated for 24 hrs before adding test compound. The compounds were added to the cells to achieve a final concentration of 0.1 nM to 50 μM and a final DMSO (dimethylsulfoxide) concentration of 0.5%. Luciferase activity was measured 48 hours later by adding a lysis buffer and the substrate (Catalog number Glo-lysis buffer E2661 and Bright-Glo luciferase system E2620 Promega, Madison, Wis.). Cells should not be too confluent during the assay. Percent inhibition of replication data was plotted relative to no compound control. To determine the EC50 (effective concentration at which 50% of the maximum inhibition was observed), a 10 point, 3-fold serial dilution for each compound was used, which spans a concentration range of […]. EC50 values were calculated by fitting % inhibition at each concentration to the following equation: % inhibition=100%/[(EC50/[I])^b+1] where b was Hill's coefficient.
In other aspects the EC50 was equal to or less than 10 μM. In still other aspects the EC50 was equal to or less than 1 μM.

Q: How did the IC50 turn out when `O=C(O)c1sc(-c2ccc(F)cc2)cc1N1C(=O)CN(S(=O)(=O)c2ccc(N3CC4CC3CO4)nc2)C[C@H]1C1CCCCC1` (stereo partly drawn) [Compound 228, 3-{(R)-2-Cyclohexyl-4-[6-(2-oxa-5-aza-bicyclo[2.2.1]hept-5-yl)-pyridine-3-sulfonyl]-6-oxo-piperazin-1-yl}-5-(4-fluoro-phenyl)-thiophene-2-carboxylic acid] was run?
A: ≤ 0.1 µM

Q: For `O=C(COc1ccccc1)N[C@@H]1CC(=O)N(c2cc(-c3ccccc3)sc2C(=O)O)[C@@H](C2CCCCC2)C1` [Compound 22, 3-[(2R,4S)-2-Cyclohexyl-6-oxo-4-(2-phenoxy-acetylamino)-piperidin-1-yl]-5-phenyl-thiophene-2-carboxylic acid], which IC50 is on record?
A: ≥ 5 µM

Q: For `Cc1oc(C)c(S(=O)(=O)N2CC(=O)N(c3cc(-c4ccccc4)sc3C(=O)O)C(C3CCCCC3)C2)c1C(=O)O` (centres unmarked) [Compound 33, 4-[4-(2-Carboxy-5-phenyl-thiophen-3-yl)-3-cyclohexyl-5-oxo-piperazine-1-sulfonyl]-2,5-dimethyl-furan-3-carboxylic acid], which IC50 is on record?
A: ≥ 5 µM

Q: How did the IC50 turn out when `C[C@@H]1CCCN1c1ccc(S(=O)(=O)N2CC(=O)N(c3cc(-c4ccc(Cl)cc4)sc3C(=O)O)[C@H](C3CCCCC3)C2)cn1` [Compound 201, 5-(4-Chloro-phenyl)-3-{(R)-2-cyc!ohexyl-4-[6-((R)-2-methyl-pyrrolidin-1-yl)-pyridine-3-sulfonyl]-6-oxo-piperazin-1-yl}-thiophene-2-carboxylic acid] was run?
A: ≤ 0.1 µM

Q: How did the IC50 turn out when `O=C(O)c1sc(-c2ccc(F)cc2)cc1N1C(=O)CN(S(=O)(=O)c2ccc(N3CCCCC3)nc2)C[C@H]1C1CCCCC1` [Compound 235, 3-[(R)-2-Cyclohexyl-6-oxo-4-(3,4,5,6-tetrahydro-2H-[1,2′]bipyridinyl-5′-sulfonyl)-piperazin-1-yl]-5-(4-fluoro-phenyl)-thiophene-2-carboxylic acid] was run?
A: ≤ 0.1 µM

Q: How did the IC50 turn out when `CN1CCN(c2ccc(-c3ccc(S(=O)(=O)N4CC(=O)N(c5cc(-c6ccccc6)sc5C(=O)O)[C@H](C5CCCCC5)C4)cn3)cn2)CC1` [Compound 224, 3-{(R)-2-Cyclohexyl-4-[6′-(4-methyl-piperazin-1-yl)-[2,3′]bipyridinyl-5-sulfonyl]-6-oxo-piperazin-1-yl}-5-phenyl-thiophene-2-carboxylic acid] was run?
A: ≤ 0.1 µM

Q: With `Cc1oncc1S(=O)(=O)N1CC(=O)N(c2cc(C#CC(C)(C)C)sc2C(=O)O)[C@H](C2CCCCC2)C1` [Compound 240, 3-[(R)-2-Cyclohexyl-4-(5-methyl-isoxazole-4-sulfonyl)-6-oxo-piperazin-1-yl]-5-(3,3-dimethyl-but-1-ynyl)-thiophene-2-carboxylic acid] as the compound, how does the IC50 read?
A: ≤ 0.1 µM

Q: For `CC1CCN(c2ccc(S(=O)(=O)N3CC(=O)N(c4cc(-c5ccccc5)sc4C(=O)O)C(C4CCCCC4)C3)cn2)CC1` (centres unmarked) [Compound 96, 3-[2-Cyclohexyl-4-(4-methyl-3,4,5,6-tetrahydro-2H-[1,2′]bipyridinyl-5′-sulfonyl)-6-oxo-piperazin-1-yl]-5-phenyl-thiophene-2-carboxylic acid], which IC50 is on record?
A: ≤ 0.1 µM

Q: `CC1(C)CCN(c2ccc(S(=O)(=O)N3CC(=O)N(c4cc(-c5ccccc5)sc4C(=O)O)[C@H](C4CCCCC4)C3)cn2)C1` [Compound 219, 3-{(R)-2-Cyclohexyl-4-[6-(3,3-dimethyl-pyrrolidin-1-yl)-pyridine-3-sulfonyl]-6-oxo-piperazin-1-yl}-5-phenyl-thiophene-2-carboxylic acid] was tested. Which IC50 did it give?
A: ≤ 0.1 µM

Same assay, conditions: Hepatitis C virus; between 100 nM and 5.0 uM

Q: `CC(C)S(=O)(=O)N1CC(=O)N(c2cc(-c3ccccc3)sc2C(=O)O)C(C2CCCCC2)C1` (centres unmarked) [Compound 37, 3-[2-Cyclohexyl-6-oxo-4-(propane-2-sulfonyl)-piperazin-1-yl]-5-phenyl-thiophene-2-carboxylic acid] was tested. Which IC50 did it give?
A: 0.1 to 5 µM

Q: How did the IC50 turn out when `O=C(O)c1sc(-c2ccccc2)cc1N1C(=O)CN(S(=O)(=O)c2ccc(-c3ccncc3)nc2)C[C@H]1C1CCCCC1` [Compound 207] was run?
A: 0.1 to 5 µM

Q: How did the IC50 turn out when `O=C(O)c1sc(-c2ccccc2)cc1N1C(=O)CC[C@H]1C1CCCCC1` [Compound 6, 3-((S)-2-Cyclohexyl-5-oxo-pyrrolidin-1-yl)-5-phenyl-thiophene-2-carboxylic acid] was run?
A: 0.1 to 5 µM
